Structures can show the parent of a compound that is named as a salt.
Key:
[1] = system: respiratory smooth muscle; assay: Inhibition of histamine-induced bronchoconstriction in the dog (β-adrenergic stimulant activity); type: in vivo; conditions: 100-200 mcg/kg, over a period of 2 hours
systolic blood pressure = assay: Reduction in systolic blood pressure in the unanesthetized spontaneous hypertensive rat (antihypertensive activity); type: in vivo; conditions: single oral medication
Method: Antihypertensive activity was determined on the basis of the observed reduction in systolic blood pressure measured according to the method of H. Kersten et al., J. Lab. and Clin. Med. 32, 1090 (1947) following a single oral medication in the unanesthetized spontaneous hypertensive rat described by Okamato et al., Japan Circulation J. 27, 282 (1963).

[2] = system: hind limb vasculature of the anesthetized dog; isolated rabbit ear artery; assay: Reduction in perfusion pressure in hind limb vasculature of the anesthetized dog and in the isolated rabbit ear artery (vasodilator activity); type: in vivo
Description: 17, 357 (1972), and also on the basis of percent reduction in perfusion pressure as measured in the isolated rabbit ear artery according to the method described by De La Lande et al. Aust. J. Exp. Biol. Med. Sci. 43, 639 (1965).

cardiac muscle = assay: Increase in heart rate (β-adrenergic stimulant activity); type: in vivo; conditions: dog; 100-200 mcg/kg
β-adrenergic [3] = assay: Inhibition of isoproterenol-induced heart rate elevation in the pentobarbitalized dog (β-adrenergic blocking activity); type: in vivo; conditions: test compound 1.0 mg/kg, isoproterenol intravenous
β-adrenergic [4] = conditions: Kaiser et al. 1975; cited from earlier work
β-adrenergic [5] = conditions: Kaiser et al. 1975; cited from earlier work; remark: listed apart in the source

| SMILES | inhibition of the histamine-induced bronchoconstriction [1] | antihypertensive activity (reduction in systolic blood pressure) (systolic blood pressure) | vasodilator activity (reduction in perfusion pressure) [2] | increase in heart rate (β-adrenergic stimulant activity) (cardiac muscle) | % Inhibition of Heart Rate Elevation (β-adrenergic [3]) | β-adrenergic agonist activity (β-adrenergic [4]) | β-adrenergic antagonistic activity (β-adrenergic [5]) |
| --- | --- | --- | --- | --- | --- | --- | --- |
| CSc1cc(C(O)CNC(C)(C)C)ccc1OC(C)=O (stereo not drawn) [Example 3, α-[(tert-butylamino)methyl]-4-hydroxy-3-(methylthio)benzenemethanol 4-acetate hydrochloride] | 50% | antihypertensive | vasodilator activity | increase in heart rate | 50% |  |  |
| C[S+]([O-])c1cc(C(O)CNC(C)(C)C)ccc1O (stereo not drawn) [Example 4, α-[(t-butylamino)methyl]-4-hydroxy-3-(methylsulfinyl)benzenemethanolmethanesulfonate] | 50% | antihypertensive | vasodilator activity | increase in heart rate | 100% |  |  |
| CC(C)(C)NCC(O)c1ccc(O)c(S(C)(=O)=O)c1 (stereo not drawn) [Example 6, α-[(t-butylamino)methyl]-4-hydroxy-3-(methylsulfonyl)benzenemethanolmethanesulfonate] |  |  |  |  | 87% |  |  |
| CC(C)(C)NCC(O)c1ccc(O)c(S(C)(=O)=O)c1 (stereo not shown) [drawing 3] |  |  |  |  |  | weakly active | exhibits β-adrenergic antagonistic activity |

From patent US4327224A, “α-[(alkylamino)alkyl]-4-hydroxy-3-(alkylthio)benzenemethanols, derivatives thereof and intermediates therefor” (Sterling Drug Inc., priority 1976, dated 1982)
